Results as given in ChEMBL document CHEMBL1201862, “PubChem BioAssay data set” (2004).
The source made the active and inactive calls.

Legend:
[1] = target: T1, RNA-binding protein pos-1 (Caenorhabditis elegans, UniProt G5EF15); assay: inhibitors of POS-1/mex-3 RNA binding, dose response, biochemical, fluorescence polarization (AID 1964);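 also: purified POS-1 fused to maltose binding protein made in E. coli; potency of compounds blocking POS-1 binding to fluorescent RNA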
T1 sequence (G5EF15 whole entry): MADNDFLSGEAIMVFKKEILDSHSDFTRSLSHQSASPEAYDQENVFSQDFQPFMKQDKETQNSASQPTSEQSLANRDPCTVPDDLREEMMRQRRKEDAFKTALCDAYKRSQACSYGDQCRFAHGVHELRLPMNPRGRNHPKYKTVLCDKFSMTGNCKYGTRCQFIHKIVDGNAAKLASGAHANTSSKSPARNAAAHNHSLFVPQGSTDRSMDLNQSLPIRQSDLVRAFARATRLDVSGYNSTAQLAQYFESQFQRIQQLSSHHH

[2] = target: T2, Protein RecA (Mycobacterium tuberculosis, UniProt P9WHJ3); assay: Fluorescence Cell-Free Homogeneous Dose Retest to Identify Inhibitors of RecA-Intein Splicing Activity. [Related pubchem assays (depositor defined):AID2097, AID2223, AID489010, AID492950]; assay type: functional
T2 sequence (P9WHJ3 whole entry): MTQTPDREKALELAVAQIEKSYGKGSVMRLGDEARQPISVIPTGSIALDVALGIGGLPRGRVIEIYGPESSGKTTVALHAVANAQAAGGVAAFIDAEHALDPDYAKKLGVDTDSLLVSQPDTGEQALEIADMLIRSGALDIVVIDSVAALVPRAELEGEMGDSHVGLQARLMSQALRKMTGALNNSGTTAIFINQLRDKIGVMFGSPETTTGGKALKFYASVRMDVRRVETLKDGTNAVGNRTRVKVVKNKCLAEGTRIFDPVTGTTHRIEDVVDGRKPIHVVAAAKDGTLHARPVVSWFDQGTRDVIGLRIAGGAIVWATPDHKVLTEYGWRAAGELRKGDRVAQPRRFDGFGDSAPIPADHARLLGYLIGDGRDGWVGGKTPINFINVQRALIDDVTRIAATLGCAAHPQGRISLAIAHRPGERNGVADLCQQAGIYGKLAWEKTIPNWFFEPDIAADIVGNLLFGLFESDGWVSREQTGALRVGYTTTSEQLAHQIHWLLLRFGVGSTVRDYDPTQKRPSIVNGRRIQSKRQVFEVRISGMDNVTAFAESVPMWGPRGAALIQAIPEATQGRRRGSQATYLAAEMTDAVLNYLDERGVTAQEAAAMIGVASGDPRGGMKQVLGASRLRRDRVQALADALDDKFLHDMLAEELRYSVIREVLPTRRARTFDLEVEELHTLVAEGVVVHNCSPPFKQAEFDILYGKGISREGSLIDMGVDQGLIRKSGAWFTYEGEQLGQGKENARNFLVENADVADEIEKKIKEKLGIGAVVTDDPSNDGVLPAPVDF

[3] = target: Voltage-gated N-type calcium channel alpha-1B subunit/Amyloid beta A4 precursor protein-binding family A member 1 (Homo sapiens, UniProt Q00975+Q02410); assay type: protein assay
[4] = target: T3, 1-phosphatidylinositol 4,5-bisphosphate phosphodiesterase beta-3 (Homo sapiens, UniProt Q01970); assay: Fluorescence-based biochemical high throughput dose response assay to identify inhibitors of phospholipase C isozymes (PLC-B3).
T3 sequence (Q01970 whole entry): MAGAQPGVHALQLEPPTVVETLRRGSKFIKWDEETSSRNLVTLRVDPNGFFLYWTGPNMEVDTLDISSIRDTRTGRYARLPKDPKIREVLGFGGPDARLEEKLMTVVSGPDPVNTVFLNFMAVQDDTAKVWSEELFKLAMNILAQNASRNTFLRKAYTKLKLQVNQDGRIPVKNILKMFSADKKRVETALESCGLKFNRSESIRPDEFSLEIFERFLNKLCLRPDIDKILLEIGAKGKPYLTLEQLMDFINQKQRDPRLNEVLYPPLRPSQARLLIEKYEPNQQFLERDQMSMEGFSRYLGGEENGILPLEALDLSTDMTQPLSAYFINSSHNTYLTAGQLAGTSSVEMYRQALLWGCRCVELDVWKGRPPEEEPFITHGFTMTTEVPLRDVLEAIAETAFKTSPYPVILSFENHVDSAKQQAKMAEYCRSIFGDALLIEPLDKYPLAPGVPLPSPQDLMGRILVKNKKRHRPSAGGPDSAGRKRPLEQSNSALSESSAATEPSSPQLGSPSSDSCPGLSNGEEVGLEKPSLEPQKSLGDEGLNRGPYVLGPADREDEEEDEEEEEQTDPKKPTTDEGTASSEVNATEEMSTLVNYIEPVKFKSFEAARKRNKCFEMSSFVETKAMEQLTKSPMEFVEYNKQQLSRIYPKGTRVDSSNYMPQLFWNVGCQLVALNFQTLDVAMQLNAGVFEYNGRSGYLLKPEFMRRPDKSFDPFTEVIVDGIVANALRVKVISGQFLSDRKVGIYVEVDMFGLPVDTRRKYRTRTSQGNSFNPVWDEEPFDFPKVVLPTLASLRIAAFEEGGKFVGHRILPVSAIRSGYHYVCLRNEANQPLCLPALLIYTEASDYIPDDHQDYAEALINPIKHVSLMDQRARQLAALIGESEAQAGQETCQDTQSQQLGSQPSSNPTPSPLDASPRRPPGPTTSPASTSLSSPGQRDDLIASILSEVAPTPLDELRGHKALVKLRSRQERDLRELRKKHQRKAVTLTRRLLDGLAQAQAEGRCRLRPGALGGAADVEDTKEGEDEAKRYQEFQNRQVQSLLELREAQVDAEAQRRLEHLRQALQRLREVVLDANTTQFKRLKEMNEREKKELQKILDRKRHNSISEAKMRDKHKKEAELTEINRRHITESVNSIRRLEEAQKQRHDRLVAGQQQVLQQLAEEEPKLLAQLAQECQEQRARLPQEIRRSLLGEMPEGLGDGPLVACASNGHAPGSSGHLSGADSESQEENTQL

[5] = target: T4, Dual specificity protein phosphatase 3 (Homo sapiens, UniProt P51452); assay: VHR1 phosphatase inhibitors, primary screen, biochemical, absorbance, uHTS (AID 1654)
[6] = target: T4, Dual specificity protein phosphatase 3; assay: VHR1 phosphatase inhibitors, biochemical (AID 1878)
[7] = tested on: INS1; assay: beta cell apoptosis inhibitors, cytokine rescue, dose response, luminescence, retest (AID 449756); assay type: functional, cell-based; settings: Rattus norvegicus;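 also: cell death triggered by IL-1 beta plus TNF-alpha plus IFN-gamma mixture; protective hits raise ATP signal compared with cytokine alone wells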
[8] = target: G-protein coupled receptor 55 (Homo sapiens, UniProt Q9Y2T6); assay: GPR55 antagonists blocking LPI-driven arrestin recruitment, primary screen, imaging, U2OS, beta-arrestin-GFP, LPI agonist (AID 2013); assay type: functional;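 also: antagonist potency measured as reduced agonist-driven arrestin aggregation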
[9] = tested on: BJ; assay: cells; assay type: functional, cell-based; settings: Homo sapiens
[10] = tested on: Jurkat; assay: antigen receptor-induced NF-kB inhibitors, dose response, Jurkat, luciferase reporter, luminescence, B- and T-cell (AID 489004); assay type: functional, cell-based; settings: Homo sapiens;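 also: NF-kB luciferase reporter Jurkat cells stimulated with PMA plus ionomycin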
[11] = target: Beta Lactamase (Pseudomonas aeruginosa, UniProt Q932Y6); assay: beta-lactamase reporter inhibitor potency, dose response, artefact control for TLR9-MyD88 binding inhibitor project, BLA reporter cells, FRET fluorescence (AID 588341); assay type: cell-based;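 also: cell based assay in CHO-K1 cells stably expressing beta-lactamase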
Sequence of Beta Lactamase (Q932Y6 whole entry): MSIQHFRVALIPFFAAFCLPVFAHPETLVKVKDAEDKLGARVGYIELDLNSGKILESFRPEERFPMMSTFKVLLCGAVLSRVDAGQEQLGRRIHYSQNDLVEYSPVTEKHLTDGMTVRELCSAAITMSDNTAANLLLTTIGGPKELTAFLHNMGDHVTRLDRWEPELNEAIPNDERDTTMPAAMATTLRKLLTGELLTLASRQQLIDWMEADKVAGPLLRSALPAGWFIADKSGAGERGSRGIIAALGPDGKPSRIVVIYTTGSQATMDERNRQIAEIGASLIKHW

T4 sequence (P51452 whole entry): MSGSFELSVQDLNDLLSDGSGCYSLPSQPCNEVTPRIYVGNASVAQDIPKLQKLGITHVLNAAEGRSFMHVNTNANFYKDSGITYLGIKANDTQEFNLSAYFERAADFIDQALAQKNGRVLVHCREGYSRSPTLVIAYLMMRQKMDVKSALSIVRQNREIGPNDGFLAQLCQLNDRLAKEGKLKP
Sequence of Voltage-gated N-type calcium channel alpha-1B subunit/Amyloid beta A4 precursor protein-binding family A member 1 (Q00975 whole entry): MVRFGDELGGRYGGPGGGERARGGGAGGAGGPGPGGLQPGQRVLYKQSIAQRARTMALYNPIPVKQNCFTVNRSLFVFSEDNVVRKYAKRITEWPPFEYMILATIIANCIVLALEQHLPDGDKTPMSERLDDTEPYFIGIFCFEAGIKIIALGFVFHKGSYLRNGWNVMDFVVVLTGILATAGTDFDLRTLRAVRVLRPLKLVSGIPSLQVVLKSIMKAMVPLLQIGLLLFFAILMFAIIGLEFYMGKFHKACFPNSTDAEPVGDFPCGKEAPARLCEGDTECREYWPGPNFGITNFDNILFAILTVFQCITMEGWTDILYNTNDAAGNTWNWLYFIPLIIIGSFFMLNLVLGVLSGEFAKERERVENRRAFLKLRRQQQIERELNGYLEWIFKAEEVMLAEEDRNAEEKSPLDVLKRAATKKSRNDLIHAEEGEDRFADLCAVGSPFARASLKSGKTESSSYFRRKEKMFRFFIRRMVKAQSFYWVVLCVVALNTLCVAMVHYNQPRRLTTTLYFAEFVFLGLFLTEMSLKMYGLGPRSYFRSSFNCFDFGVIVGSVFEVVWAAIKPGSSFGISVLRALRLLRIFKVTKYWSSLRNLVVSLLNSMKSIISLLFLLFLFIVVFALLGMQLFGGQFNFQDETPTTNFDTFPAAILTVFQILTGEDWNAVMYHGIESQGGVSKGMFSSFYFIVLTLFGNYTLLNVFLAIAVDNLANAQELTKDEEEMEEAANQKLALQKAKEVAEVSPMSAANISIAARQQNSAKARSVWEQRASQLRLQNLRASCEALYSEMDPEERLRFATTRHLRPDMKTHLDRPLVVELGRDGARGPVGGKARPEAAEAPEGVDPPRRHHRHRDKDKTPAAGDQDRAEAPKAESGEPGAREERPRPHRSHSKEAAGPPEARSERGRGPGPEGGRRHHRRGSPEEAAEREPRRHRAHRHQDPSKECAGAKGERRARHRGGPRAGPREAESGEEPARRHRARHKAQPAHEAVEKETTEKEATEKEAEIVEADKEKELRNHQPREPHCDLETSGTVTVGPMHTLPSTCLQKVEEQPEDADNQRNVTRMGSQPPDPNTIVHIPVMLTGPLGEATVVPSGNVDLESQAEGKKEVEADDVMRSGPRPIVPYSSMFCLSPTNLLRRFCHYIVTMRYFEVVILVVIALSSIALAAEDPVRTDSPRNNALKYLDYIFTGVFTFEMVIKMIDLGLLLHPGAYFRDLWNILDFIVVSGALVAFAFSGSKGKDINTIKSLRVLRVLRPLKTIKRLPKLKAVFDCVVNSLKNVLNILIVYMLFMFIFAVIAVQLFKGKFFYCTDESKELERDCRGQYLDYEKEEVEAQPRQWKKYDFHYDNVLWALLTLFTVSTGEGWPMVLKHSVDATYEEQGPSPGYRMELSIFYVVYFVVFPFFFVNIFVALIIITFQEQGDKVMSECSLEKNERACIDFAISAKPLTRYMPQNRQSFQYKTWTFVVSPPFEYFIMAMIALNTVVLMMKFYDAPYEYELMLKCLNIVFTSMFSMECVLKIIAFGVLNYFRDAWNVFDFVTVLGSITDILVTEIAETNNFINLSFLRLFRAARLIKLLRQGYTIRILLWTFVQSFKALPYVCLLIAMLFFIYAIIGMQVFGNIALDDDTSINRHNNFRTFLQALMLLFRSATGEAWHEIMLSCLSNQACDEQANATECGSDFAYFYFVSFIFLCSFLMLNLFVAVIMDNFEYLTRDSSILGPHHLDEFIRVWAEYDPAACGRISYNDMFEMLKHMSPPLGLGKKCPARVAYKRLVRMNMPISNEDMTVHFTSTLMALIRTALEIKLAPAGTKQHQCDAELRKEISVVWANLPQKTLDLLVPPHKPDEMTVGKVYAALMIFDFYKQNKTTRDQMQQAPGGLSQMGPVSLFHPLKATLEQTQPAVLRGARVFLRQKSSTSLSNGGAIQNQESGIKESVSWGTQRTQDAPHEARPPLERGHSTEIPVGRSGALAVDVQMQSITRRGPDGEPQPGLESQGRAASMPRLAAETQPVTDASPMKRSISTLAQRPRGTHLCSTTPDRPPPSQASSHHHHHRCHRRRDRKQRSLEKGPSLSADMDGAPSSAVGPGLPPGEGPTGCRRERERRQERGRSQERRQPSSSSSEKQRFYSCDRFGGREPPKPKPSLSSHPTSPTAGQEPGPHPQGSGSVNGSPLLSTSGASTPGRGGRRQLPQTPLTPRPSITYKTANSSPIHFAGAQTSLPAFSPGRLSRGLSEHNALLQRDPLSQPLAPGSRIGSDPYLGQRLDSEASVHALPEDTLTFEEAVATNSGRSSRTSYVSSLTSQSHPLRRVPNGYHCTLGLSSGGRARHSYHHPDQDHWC
Sequence of Voltage-gated N-type calcium channel alpha-1B subunit/Amyloid beta A4 precursor protein-binding family A member 1 (Q02410 whole entry): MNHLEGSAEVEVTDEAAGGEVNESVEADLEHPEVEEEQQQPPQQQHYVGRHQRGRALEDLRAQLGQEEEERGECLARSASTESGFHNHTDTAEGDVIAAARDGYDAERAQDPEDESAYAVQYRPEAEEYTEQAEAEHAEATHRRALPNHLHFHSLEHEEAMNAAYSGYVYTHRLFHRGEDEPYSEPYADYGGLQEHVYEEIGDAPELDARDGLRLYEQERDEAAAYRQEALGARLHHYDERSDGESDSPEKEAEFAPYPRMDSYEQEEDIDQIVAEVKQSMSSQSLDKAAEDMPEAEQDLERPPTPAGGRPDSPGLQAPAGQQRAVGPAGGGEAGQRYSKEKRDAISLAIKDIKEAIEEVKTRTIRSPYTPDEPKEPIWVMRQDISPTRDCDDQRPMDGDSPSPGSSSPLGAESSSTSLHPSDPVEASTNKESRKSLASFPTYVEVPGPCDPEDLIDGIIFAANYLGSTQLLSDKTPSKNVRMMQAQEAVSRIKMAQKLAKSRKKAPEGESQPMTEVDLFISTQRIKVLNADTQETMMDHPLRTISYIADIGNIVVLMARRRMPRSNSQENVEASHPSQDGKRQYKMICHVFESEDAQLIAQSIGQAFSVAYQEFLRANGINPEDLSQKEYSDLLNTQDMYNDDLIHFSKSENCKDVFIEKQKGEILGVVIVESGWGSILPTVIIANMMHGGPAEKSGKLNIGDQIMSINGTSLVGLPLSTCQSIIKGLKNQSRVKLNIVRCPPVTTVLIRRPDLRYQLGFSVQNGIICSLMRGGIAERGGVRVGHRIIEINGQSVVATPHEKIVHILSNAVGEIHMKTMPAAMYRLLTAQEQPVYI
Sequence of G-protein coupled receptor 55 (Q9Y2T6 whole entry): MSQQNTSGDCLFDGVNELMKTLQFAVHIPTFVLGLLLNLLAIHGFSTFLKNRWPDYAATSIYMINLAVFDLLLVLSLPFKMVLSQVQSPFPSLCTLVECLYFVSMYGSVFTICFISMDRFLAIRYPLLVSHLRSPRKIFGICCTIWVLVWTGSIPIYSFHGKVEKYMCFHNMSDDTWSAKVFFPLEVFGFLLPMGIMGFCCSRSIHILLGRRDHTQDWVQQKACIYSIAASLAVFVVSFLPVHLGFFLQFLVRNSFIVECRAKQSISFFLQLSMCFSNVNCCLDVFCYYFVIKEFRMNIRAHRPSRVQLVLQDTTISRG

CCN(CC)CCN1C(=O)c2cccc3cc(N)cc(c23)C1=O
EC50 [1]: 6.62 µM (active) | EC50 [2]: 0.209 µM (active)

O=C(O)c1cccc(-n2cccc2/C=C2/NC(=O)N(c3ccc(Cl)cc3)C2=O)c1
IC50 [3]: 9.85 µM (active) | IC50 [4]: > 122 µM (inactive) | IC50 [5]: < 0.98 µM (inactive) | IC50 [6]: < 1.23 µM (inactive)

C=C1C(=O)O[C@@H]2C[C@@H](C)[C@@H]3C=CC(=O)[C@@]3(C)[C@@H](OC(=O)CC(=O)O[C@H]3[C@@H]4C(=C)C(=O)O[C@@H]4C[C@@H](C)[C@@H]4C=CC(=O)[C@]43C)[C@H]12
AC50 [7]: 0.312 µM (active) | IC50 [8]: 1.85 µM (active) | EC50 [9]: 5.4 µM (inconclusive) | IC50 [10]: 0.29 µM (active) | IC50 [11]: 17.9 µM (inactive) | EC50 [2]: 46 µM (active)

O=S(=O)(O)c1cc(Cl)cc(N=Nc2ccc(O)cc2O)c1O
IC50 [4]: > 122 µM (inactive)
